Reference: article PMC8842277, “Highly Antiproliferative Latonduine and Indolo[2,3-c]quinoline Derivatives: Complex Formation with Copper(II) Markedly Changes the Kinase Inhibitory Profile” (Journal of Medicinal Chemistry, 2022)

Key:
[1] = Thermodynamic solubility, UV–vis of saturated solutions
Procedure: The concentration of the compounds was determined by UV–vis spectrophotometry using stock solutions of the compounds with a known concentration dissolved in pure DMSO and 50% (v/v) DMSO/buffered aqueous solution for the calibration.

PDK1 = PDK1 (Homo sapiens, UniProt O15530); experiment: Kinase panel screen; format: biochemical; settings: 10 µM compound
Source text: (§1) Figure 7 (see also Table S4) summarizes the results of this assay as a histogram plotting the percentage of the remaining enzyme activity (x-axis) as a function of added lead compound (HL^8: blue trace, 8: red trace) for each of the 50 enzymes assayed (y-axis). […] Thus, the coordination to copper(II) completely changes the kinase inhibition profile of HL^8.
(§2) Figure 7 Screening of HL^8 and 8 against 50 enzymes: histogram with % remaining activity on the x-axis plotted against the compound identifier (blue trace: HL^8 and red trace: 8) and enzyme identifier on the […]. The screen was carried out at a compound concentration of 10 μM, an enzyme concentration of 50 nM, and an ATP concentration of 100 μM.
(§3) All kinase assays were carried out using Multidrop 384’s at room temperature in a total assay volume of 25.5 μL. To plates containing 0.5 μL of HL^8 and 8, DMSO control or acid blank […], 15 μL of an enzyme mix containing enzyme […], and excess peptide/protein substrate in buffer was added. Compounds were pre-incubated in the presence of the enzyme and peptide/protein substrate for 5 min before initiation of the reaction by addition of 10 μL of ATP (final concentration selected for each kinase at 5, 20, or 50 μM). Assays were carried out for 30 min at room temperature before termination by the addition of 5 μL of orthophosphoric acid. The assay plates were then harvested onto P81 Unifilter Plates by a PerkinElmer Harvester and air dried. The dry Unifilter plates were then sealed on the addition of MicroScint O and were counted in PerkinElmer Topcount scintillation counters.

PKCa = PKCa (Homo sapiens, UniProt P17252); experiment: Kinase panel screen; format: biochemical; settings: 10 µM compound
Source text: as §1, §2, §3

JAK3 = JAK3 (Homo sapiens, UniProt P52333); experiment: Kinase panel screen; format: biochemical; settings: 10 µM compound
Source text: as §1, §2, §3

Src = Src (Homo sapiens, UniProt P12931); experiment: Kinase panel screen; format: biochemical; settings: 10 µM compound
Source text: as §1, §2, §3

CK1δ = CK1δ (Homo sapiens, UniProt P48730); experiment: Kinase panel screen; format: biochemical; settings: 10 µM compound
Source text: as §1, §2, §3

ROCK 2 = ROCK 2 (Homo sapiens, UniProt O75116); experiment: Kinase panel screen; format: biochemical; settings: 10 µM compound
Source text: as §1, §2, §3

IRAK4 = IRAK4 (Homo sapiens, UniProt Q9NWZ3); experiment: Kinase panel screen; format: biochemical; settings: 10 µM compound
Source text: as §1, §2, §3

TrkA = TrkA (Homo sapiens, UniProt P04629); experiment: Kinase panel screen; format: biochemical; settings: 10 µM compound
Source text: as §1, §2, §3

SmMLCK = SmMLCK (Homo sapiens, UniProt Q15746); experiment: Kinase panel screen; format: biochemical; settings: 10 µM compound
Source text: as §1, §2, §3

JNK1 = JNK1 (Homo sapiens, UniProt P45983); experiment: Kinase panel screen; format: biochemical; settings: 10 µM compound
Source text: as §1, §2, §3

HIPK2 = HIPK2 (Homo sapiens, UniProt Q9H2X6); experiment: Kinase panel screen; format: biochemical; settings: 10 µM compound
Source text: as §1, §2, §3

EF2K = EF2K (Homo sapiens, UniProt O00418); experiment: Kinase panel screen; format: biochemical; settings: 10 µM compound
Source text: as §1, §2, §3

TTK = TTK (Homo sapiens, UniProt P33981); experiment: Kinase panel screen; format: biochemical; settings: 10 µM compound
Source text: as §1, §2, §3

SRPK1 = SRPK1 (Homo sapiens, UniProt Q96SB4); experiment: Kinase panel screen; format: biochemical; settings: 10 µM compound
Source text: as §1, §2, §3

S6K1 = S6K1 (Homo sapiens, UniProt P23443); experiment: Kinase panel screen; format: biochemical; settings: 10 µM compound
Source text: as §1, §2, §3

p38a MAPK = p38a MAPK (Homo sapiens, UniProt Q16539); experiment: Kinase panel screen; format: biochemical; settings: 10 µM compound
Source text: as §1, §2, §3

CAMKKb = CAMKKb (Homo sapiens, UniProt Q96RR4); experiment: Kinase panel screen; format: biochemical; settings: 10 µM compound
Source text: as §1, §2, §3

CAMKKb, sequence (Q96RR4 whole entry): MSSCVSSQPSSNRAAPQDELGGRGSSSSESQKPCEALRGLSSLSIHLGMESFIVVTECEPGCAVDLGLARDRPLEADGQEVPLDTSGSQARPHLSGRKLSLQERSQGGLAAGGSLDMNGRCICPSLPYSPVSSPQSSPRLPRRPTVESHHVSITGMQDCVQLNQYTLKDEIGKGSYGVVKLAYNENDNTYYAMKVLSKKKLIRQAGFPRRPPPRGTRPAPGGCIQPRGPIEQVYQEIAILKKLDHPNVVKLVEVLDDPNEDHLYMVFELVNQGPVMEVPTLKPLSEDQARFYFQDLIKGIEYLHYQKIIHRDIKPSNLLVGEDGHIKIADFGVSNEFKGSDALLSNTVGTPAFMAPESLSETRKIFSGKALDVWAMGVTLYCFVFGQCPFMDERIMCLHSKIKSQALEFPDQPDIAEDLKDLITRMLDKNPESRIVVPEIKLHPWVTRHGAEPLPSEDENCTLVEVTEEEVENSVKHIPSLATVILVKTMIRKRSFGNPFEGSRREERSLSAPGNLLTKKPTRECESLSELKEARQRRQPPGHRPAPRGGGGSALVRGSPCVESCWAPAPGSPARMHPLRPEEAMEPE
S6K1, sequence (P23443 whole entry): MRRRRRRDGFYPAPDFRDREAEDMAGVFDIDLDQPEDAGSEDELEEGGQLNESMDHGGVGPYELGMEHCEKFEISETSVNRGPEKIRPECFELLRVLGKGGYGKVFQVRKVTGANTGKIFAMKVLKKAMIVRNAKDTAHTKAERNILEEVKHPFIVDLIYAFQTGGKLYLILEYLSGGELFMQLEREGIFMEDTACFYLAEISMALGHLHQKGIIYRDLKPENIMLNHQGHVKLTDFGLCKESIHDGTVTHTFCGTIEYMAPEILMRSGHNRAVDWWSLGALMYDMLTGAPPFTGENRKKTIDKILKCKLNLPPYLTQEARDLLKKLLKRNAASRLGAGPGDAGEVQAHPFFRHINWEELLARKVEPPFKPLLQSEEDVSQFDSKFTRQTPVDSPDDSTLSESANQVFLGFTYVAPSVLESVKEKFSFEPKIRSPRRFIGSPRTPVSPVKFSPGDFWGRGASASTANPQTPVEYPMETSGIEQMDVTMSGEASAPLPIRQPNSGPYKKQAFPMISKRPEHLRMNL
CK1δ, sequence (P48730 whole entry): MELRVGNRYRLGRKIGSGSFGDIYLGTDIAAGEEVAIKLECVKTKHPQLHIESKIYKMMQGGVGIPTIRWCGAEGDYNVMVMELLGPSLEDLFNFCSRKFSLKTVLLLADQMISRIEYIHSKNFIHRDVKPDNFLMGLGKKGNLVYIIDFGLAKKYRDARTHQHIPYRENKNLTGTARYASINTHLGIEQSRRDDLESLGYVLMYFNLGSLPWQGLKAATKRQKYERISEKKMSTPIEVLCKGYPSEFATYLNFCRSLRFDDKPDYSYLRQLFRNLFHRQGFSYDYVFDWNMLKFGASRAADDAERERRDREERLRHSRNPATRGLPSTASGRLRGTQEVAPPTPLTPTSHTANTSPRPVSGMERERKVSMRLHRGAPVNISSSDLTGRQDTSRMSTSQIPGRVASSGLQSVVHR
Src, sequence (P12931 whole entry): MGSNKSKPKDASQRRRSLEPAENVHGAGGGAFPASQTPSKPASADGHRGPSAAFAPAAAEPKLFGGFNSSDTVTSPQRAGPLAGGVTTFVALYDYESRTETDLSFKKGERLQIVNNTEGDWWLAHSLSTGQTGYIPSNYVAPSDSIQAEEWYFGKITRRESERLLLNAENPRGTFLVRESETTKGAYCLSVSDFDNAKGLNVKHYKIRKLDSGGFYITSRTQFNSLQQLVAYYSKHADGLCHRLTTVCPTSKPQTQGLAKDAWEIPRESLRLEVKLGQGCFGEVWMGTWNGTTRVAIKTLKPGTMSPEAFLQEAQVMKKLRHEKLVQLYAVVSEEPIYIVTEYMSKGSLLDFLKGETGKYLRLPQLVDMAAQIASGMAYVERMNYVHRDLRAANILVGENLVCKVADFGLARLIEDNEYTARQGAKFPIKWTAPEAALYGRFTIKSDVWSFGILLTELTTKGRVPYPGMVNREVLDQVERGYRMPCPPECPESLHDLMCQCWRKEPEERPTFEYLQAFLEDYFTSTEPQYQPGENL
SmMLCK, sequence (Q15746 923-1914): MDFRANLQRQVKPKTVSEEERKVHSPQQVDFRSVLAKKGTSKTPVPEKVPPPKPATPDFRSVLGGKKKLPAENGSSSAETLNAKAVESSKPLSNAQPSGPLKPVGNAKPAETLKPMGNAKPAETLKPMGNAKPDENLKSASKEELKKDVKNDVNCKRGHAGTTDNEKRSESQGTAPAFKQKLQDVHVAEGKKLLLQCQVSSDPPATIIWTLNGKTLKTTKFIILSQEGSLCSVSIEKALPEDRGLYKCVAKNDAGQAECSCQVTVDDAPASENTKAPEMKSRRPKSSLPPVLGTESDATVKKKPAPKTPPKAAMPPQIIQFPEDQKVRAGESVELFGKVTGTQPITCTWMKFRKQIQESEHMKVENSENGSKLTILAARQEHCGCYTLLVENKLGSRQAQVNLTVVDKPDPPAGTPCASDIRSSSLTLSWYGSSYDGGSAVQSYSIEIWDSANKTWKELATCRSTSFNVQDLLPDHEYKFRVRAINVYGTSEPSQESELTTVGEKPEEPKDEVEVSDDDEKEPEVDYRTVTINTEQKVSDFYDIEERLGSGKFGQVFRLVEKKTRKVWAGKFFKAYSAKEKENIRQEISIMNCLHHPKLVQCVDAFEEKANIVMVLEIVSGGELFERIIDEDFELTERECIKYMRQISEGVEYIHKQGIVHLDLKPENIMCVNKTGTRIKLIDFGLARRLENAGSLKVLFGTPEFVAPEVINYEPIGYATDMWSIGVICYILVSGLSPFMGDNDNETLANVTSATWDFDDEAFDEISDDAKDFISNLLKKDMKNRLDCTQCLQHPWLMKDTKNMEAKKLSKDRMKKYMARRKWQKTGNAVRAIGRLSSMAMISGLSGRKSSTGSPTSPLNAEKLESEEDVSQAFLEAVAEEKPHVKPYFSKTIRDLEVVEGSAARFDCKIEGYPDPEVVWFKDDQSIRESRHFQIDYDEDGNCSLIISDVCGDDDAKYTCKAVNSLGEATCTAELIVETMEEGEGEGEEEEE
TTK, sequence (P33981 whole entry): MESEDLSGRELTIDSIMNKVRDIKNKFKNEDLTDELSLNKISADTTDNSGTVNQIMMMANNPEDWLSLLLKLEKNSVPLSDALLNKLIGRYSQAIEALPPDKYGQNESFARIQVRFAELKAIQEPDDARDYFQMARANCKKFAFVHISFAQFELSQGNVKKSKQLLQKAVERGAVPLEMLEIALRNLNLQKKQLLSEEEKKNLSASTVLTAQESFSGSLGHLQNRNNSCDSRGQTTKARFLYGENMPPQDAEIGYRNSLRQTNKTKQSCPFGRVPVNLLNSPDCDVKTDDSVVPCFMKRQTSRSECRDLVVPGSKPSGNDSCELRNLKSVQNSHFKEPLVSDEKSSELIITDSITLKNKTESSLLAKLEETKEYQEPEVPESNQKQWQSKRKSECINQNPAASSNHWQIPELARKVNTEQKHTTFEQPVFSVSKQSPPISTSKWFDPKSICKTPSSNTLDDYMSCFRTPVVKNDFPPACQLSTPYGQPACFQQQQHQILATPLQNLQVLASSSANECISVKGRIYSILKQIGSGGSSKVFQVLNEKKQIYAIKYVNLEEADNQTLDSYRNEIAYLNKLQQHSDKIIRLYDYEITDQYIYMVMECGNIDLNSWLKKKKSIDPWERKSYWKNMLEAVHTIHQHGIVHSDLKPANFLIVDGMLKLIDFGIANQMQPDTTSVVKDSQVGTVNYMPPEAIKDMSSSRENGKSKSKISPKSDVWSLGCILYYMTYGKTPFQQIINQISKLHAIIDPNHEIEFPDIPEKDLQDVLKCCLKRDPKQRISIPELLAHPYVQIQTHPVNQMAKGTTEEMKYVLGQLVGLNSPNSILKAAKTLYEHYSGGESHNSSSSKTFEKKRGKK
IRAK4, sequence (Q9NWZ3 whole entry): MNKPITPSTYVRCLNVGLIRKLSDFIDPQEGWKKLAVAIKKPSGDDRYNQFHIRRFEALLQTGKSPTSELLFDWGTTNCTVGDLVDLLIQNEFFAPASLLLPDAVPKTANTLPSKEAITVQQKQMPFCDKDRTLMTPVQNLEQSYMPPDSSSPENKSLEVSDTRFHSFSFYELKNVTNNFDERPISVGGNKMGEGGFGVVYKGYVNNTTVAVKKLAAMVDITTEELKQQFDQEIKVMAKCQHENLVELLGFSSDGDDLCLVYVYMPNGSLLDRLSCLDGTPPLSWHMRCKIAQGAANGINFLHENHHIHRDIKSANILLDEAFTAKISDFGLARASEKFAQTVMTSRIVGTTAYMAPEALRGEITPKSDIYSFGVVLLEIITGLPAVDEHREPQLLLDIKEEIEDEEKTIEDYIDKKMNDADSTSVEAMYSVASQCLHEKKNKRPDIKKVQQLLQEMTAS

CC(=NNc1nc2ccccc2c2c1[nH]c1ccc(Br)cc12)c1ccc(CN2CCOCC2)cn1.[Cl][Cu][Cl] [compound 8, CuCl2(HL^8)·H2O]
Thermodynamic solubility (S) ([1]; pH 5): 34.3 µM | Thermodynamic solubility (S) ([1]; pH 7.4): 10.4 µM | % remaining activity (PDK1): 121% | % remaining activity (PKCa): 80% | % remaining activity (JAK3): 120% | % remaining activity (Src): 125% | % remaining activity (CK1δ): 98% | % remaining activity (ROCK 2): 98% | % remaining activity (IRAK4): 105% | % remaining activity (TrkA): 82% | % remaining activity (SmMLCK): 87% | % remaining activity (JNK1): 134% | % remaining activity (HIPK2): 108% | % remaining activity (EF2K): 108% | % remaining activity (TTK): 64% | % remaining activity (SRPK1): 40% | % remaining activity (S6K1): 109% | % remaining activity (p38a MAPK): 123% | % remaining activity (CAMKKb): 98%
